This is an account of results in patent US10975357B2, “Methods and compositions related to differentiated lung cells” (TRUSTEES OF BOSTON UNIVERSITY, priority 2017, dated 2021).

What all share (type): cell-based, human
One assay concerns TNFa/NFkB pathway. Nature of the assay: Cytokine stimulation of PSC-derived alveolospheres, TNFa/NFkB pathway (Western blot IkB, IL8 and GM-CSF RT-qPCR). Particulars: TNFa 10 ng/ml and IL1b 10 ng/ml given together. The procedure:
(§1) Where indicated in the text, outgrowth and distal/alveolar differentiation of cells after day 15 was performed in “CK+DCI” medium, consisting of cSFDM base, with 3 μM CHIR99021, 10 ng/mL rhKGF, and 50 nM dexamethasone (Sigma), 0.1 mM 8-Bromoadenosine 3′,5′-cyclic monophosphate sodium salt (Sigma) and 0.1 mM 3-Isobutyl-1-methylxanthine (IBMX) (Sigma) (DCI). Immediately after replating cells on Day 15 10 μM Y-27632 was added to the medium for 24 hours. Additional growth factors or cytokines were added or withdrawn as indicated in the text, including FGF10, TGFb, EGF, OSM (20 ng/ml), TNFa (10 ng/ml), and IL-1b (10 ng/ml) with other concentrations listed in figure legends (FIGS. 9A, 9B).
Reverse Transcriptase Quantitative Real Time Polymerase Chain Reaction (RT-qPCR). RT-qPCR was performed as previously described (Hawkins et al. 2017,). Briefly, RNA was isolated according to manufacturer's instructions using the Qiagen miRNeasy mini kit (Qiagen, Venlo, Netherlands). cDNA was generated by reverse transcription of up to 150 ng RNA from each sample using the Applied Biosystems High-Capacity cDNA Reverse Transcription Kit. […] Relative gene expression was calculated based on the average cycle (Ct) value of the technical triplicates, normalized to 18S control, and reported as fold change (2(−ΔΔCT)), with a fold change of 1 being assigned to undifferentiated (day 0) iPSCs or ESCs. […]
On the technique in general: A western blot detects proteins with antibodies after separation by electrophoresis.

Assay [1] concerns NKX2-1+ lung epithelial progenitor cells. Nature of the assay: SFTPCtdTomato reporter induction in day 15 NKX2-1+ progenitor outgrowth in 3D culture (flow cytometry). The procedure:
Purification of NKX2-1+ Lung Progenitors by Cell Sorting. On day 15 of differentiation, cells were incubated at 37° C. in 0.05% trypsin-EDTA (Invitrogen) for 7-15 minutes, until they reached single cell suspension. Cells were then washed in media containing 10% fetal bovine serum (FBS, ThermoFisher), centrifuged at 300g×5 minutes, and resuspended in sort buffer containing Hank's Balanced Salt Solution (ThermoFisher), 2% FBS, 10 μM Y-27632, and 10 uM calcein blue AM (Life Technologies) for dead cell exclusion. Cells not containing the NKX2-1GFP reporter were subsequently stained with CD47-PerCPCy5.5 and CD26-PE antibodies (mouse monoclonal; Biolegend 1:200; 1×10^6 cells in 100 ul) for 30 minutes at 4° C., washed with PBS, and resuspended in sort buffer. Cells were passed through a 40 um strainer prior to sorting (Falcon). Various live cell populations indicated in the text (i.e. GFP+, GFP−, CD47hi/CD26−,CD47lo) were sorted on a high-speed cell sorter (MoFlo Legacy). Directed Differentiation of NKX2-1+ Lung Progenitor Outgrowth into iAEC2s Day 15 cells, either sorted (as described above) or unsorted (dissociated as described above), were resuspended in undiluted growth factor-reduced matrigel (Corning) at a dilution of 50-100 cells/ul, with droplets ranging in size from 20 ul in 96 well plates to 1 ml in 10 cm tissue culture-treated dishes (Corning). Cells in matrigel suspension were incubated at 37° C. for 20-30 minutes, then warm media was added to the plates. […]
Alveolosphere Long Term Culture, Dissociation, and Differentiation. […] These spheres were analyzed as follows: Z-stack images of live alveolospheres were taken and processed on a Keyence (Osaka, Japan) BZ-X700 fluorescence microscope. […] To generate single cell suspensions, cell pellets were incubated in 0.05% trypsin and continued through the trypsin-based dissociation protocol described above, after which they could be passaged into fresh matrigel, analyzed by flow cytometry, or sorted as described above. […]
(Flow cytometry measures light scatter and fluorescence of single cells or particles in a stream.)

Assay [2] concerns BU3 NKX2-1GFP+/SFTPCtdTomato- population. Briefly: Late CHIR withdrawal from sorted NKX2-1GFP+/SFTPCtdTomato- population in 3D culture. Particulars: CHIR withdrawn for 10 days (days 40-50), cells sorted day 38. As for the experimental part:
as §1
(§2) Alveolosphere Long Term Culture, Dissociation, and Differentiation. Alveolospheres developed in 3D matrigel culture outgrowths within 3-7 days after day 15 replating, and were maintained in CK+DCI media for weeks to months, as indicated in the text. These spheres were analyzed as follows: Z-stack images of live alveolospheres were taken and processed on a Keyence (Osaka, Japan) BZ-X700 fluorescence microscope. […] To generate single cell suspensions, cell pellets were incubated in 0.05% trypsin and continued through the trypsin-based dissociation protocol described above, after which they could be passaged into fresh matrigel, analyzed by flow cytometry, or sorted as described above. […]

Another assay relates to RUES2 alveolospheres. Nature of the assay: CHIR addback after 1-week withdrawal in alveolospheres. To be noted: CHIR withdrawn week 4-5, added back week 5-6. The procedure:
as §1, §2

For the molecule TNFa, the “NFkB signaling (IkB protein decrease, IL8 and GM-CSF expression)” value with TNFa/NFkB pathway was “activated NFkB signaling”.
Same read-out and setting: next, IL1b: Recombinant human IL1-b: “activated NFkB signaling”.
In the case of “EGF: Recombinant mouse EGF (NSYPGCPSSYDGYCLNGGVCMHIESLDSYTCNCVIGYSGDRCQTRDLRWWELR; UniProt P01132 977-1029, looked up)”, the “further SFTPC induction efficiency with addition of the factor” value in assay [1] (factor added to differentiation media, FIG. 9B) was “No consistent further SFTPC induction efficiency”.
Regarding `Cc1c[nH]c(-c2cnc(NCCNc3ccc(C#N)cn3)nc2-c2ccc(Cl)cc2Cl)n1` [CHIR, CHIR99021, reference compound], the “efficiency of differentiation into SFTPC+ progeny after withdrawal of CHIR” value in assay [2] came out at 68.7%. In addition, the “effect of re-exposure to CHIR after 1-week withdrawal” value with RUES2 alveolospheres is “maintained expression of the SFTPCtdTomato reporter and increased proliferation”. For the same molecule, the “emergence of SFTPC+ cells from NKX2-1+ precursors in presence of Wnt stimulation via CHIR” value in assay [1] (17-22 total differentiation days) lay in the range of 2 to 7 days. In assay [1] (sorted NKX2-1GFP+ cells, by day 21, presence of CHIR in K+DCI base media), the “cells with induction of the SFTPCtdTomato reporter” value is 7.17+/−0.89%.
